According to patent US20240307374A1, “FORMULATION OF FURIN INHIBITOR FOR INHALATION” (BP ASSET V, INC., priority 2021, published 2024):
Marks after values point to notes of the source that are not given here.

Tests used:
Assay type in all cases: physicochemical
[1] = Equilibrium solubility in pH buffers (pH 4.0-6.0) with pH adjustment; details: for S: solubility: RT, with pH adjustment; for pH before adjustment (in brackets): 24 hours
Protocol: In details, ˜5 mg of solids were suspended into 1 mL of each medium with dosing conc. at ˜5 mg/mL. Additional solids were added into the sample to generate suspension if clear solution was obtained. The suspension was equilibrated via stirring (1000 rpm) for 24 hours. The pH of the suspension was adjusted when the final pH shifted above 0.3, and the samples were stirred for another 1.5 hours after pH adjustment. The suspension was centrifuged to obtain precipitate and supernatants. Solubility, purity and pH were tested for the supernatants after filtration, and isolated precipitate was tested by XRPD.
(§1) • 1. pH=3.0 buffer (50 mM HCl+KCl): Weigh 365.39 mg KCl into a 100 mL volumetric flask (VF), and add 0.1 mL 1M HCl into the VF, and dilute to volume with water. • 2. pH=4.0 buffer (50 mM citrate): Weigh 56.74 mg citric acid and 60.18 mg trisodium citrate into a 10 mL volumetric flask, and dilute to volume with water. • 3. pH=5.0 buffer (50 mM citrate) Weigh 11.12 mg citric acid and 95.38 mg trisodium citrate into a 10 mL volumetric flask, and dilute to volume with water. • 4. pH=6.0 buffer (50 mM citrate) Weigh 11.04 mg citric acid and 130.2 mg trisodium citrate into a 10 mL volumetric flask, and dilute to volume with water. • 5. pH=6.0 buffer (50 mM phosphate) Weigh 8.7 mg Na2HPO4 and 52.6 mg NaH2PO4 into a 10 mL volumetric flask, and dilute to volume with water. • 6. pH=7.0 buffer (50 mM phosphate) Weigh 23.47 mg Na2HPO4 and 43.34 mg NaH2PO4into a 10 mL volumetric flask, and dilute to volume with water. • 7. pH=8.0 buffer (50 mM phosphate) Weigh 31.64 mg Na2HPO4 and 67.18 mg NaH2PO4into a 10 mL volumetric flask, and dilute to volume with water.

Grinding stability = details: ~30 mg ground manually in a mortar for about 5 minutes
[2] = Equilibrium solubility in pH buffers (3.0-8.0), 20% captisol and water; details: 24 hrs; for S: solubility: RT
Protocol: Additional solids were added into the sample to generate suspension if clear solution obtained. The suspension was equilibrated via stirring (1000 rpm). The suspension was centrifuged to obtain precipitate and supernatants.
Solubility and pH were tested for the supernatants after filtration, and isolated precipitate was tested by XRPD.
as §1

[3] = DVS (dynamic vapor sorption) moisture uptake; details: for form change after DVS test (XRPD): XRPD before and after DVS
Protocol: (FIG. 5). Sample weight decreased rapidly when humidity decreased from 10% to 0%, which might be caused by loss of crystalline water.
DVS was measured via a SMS (Surface Measurement Systems) DVS Intrinsic.

[4] = Approximate solubility at RT; details: CHCl3, RT, solvent for freeform isolation
Protocol: Four freeform isolation experiments were performed in different solvent with different acids. Solids were obtained in DCM/HCl and CHCl3/HCl system.
Approximately 2 mg solids were added into a 3-mL glass vial. Solvents in the following table were then added stepwise (50-50-200-700[…] for each step) into the vials and stirred until the solids were dissolved or a total volume of 1 mL was reached. The solubility results were used to guide the solvent selection in polymorph formation.

[5] = pH = 4.0 buffer (50 mM citrate)
[6] = pH = 5.0 buffer (50 mM citrate)
[7] = pH = 6.0 buffer (50 mM citrate)
[8] = pH = 6.0 buffer (50 mM phosphate)
[9] = pH = 3.0 buffer (50 mM HCl + KCl)
[10] = pH = 7.0 buffer (50 mM phosphate)
[11] = pH = 8.0 buffer (50 mM phosphate)

CC(=O)NCC1CCN(Cc2cc(Oc3ccc(N4CCN(CCC(=O)O)CC4)nc3)nc(-c3cc(Cl)cc(Cl)c3)c2)CC1 [Sulfate Type B]
Area % (purity of supernatant) [1, 5]: 99.2 Area % | FC: form change (XRPD of precipitate) [1, 5]: Low (Low; low crystallinity) | pH (final, after adjustment where adjusted) [1, 5]: 3.9 | S: solubility [1, 5]: 2.29 mg/mL | Area % (purity of supernatant) [1, 6]: 99.4 Area % | FC: form change (XRPD of precipitate) [1, 6]: 3 (3/4/6/7/8: new Form 3/4/6/7/8) | pH (final, after adjustment where adjusted) [1, 6]: 5.0* | pH before adjustment (in brackets) [1, 6]: (4.5) | S: solubility [1, 6]: 6.82^# mg/mL | Area % (purity of supernatant) [1, 7]: 92.6 Area % | FC: form change (XRPD of precipitate) [1, 7]: 6 (3/4/6/7/8: new Form 3/4/6/7/8) | pH (final, after adjustment where adjusted) [1, 7]: 6.1* | pH before adjustment (in brackets) [1, 7]: (4.4) | S: solubility [1, 7]: 0.07 mg/mL | Area % (purity of supernatant) [1, 8]: 88.2 Area % | pH (final, after adjustment where adjusted) [1, 8]: 6.2* | pH before adjustment (in brackets) [1, 8]: (3.0) | S: solubility [1, 8]: 0.06 mg/mL | crystallinity after grinding (XRPD) (Grinding stability): decreased after grinding | pH of supernatant (final pH) ([2]; 20% Captisol (pH = 5.0, w/v)): 2.6 | S: solubility ([2]; 20% Captisol (pH = 5.0, w/v)): >44.5^1 mg/mL | FC: form change (XRPD of precipitate) ([2]; H2O): N (N: solid form not changed) | pH of supernatant (final pH) ([2]; H2O): 2.4 | S: solubility ([2]; H2O): 1.97 mg/mL | FC: form change (XRPD of precipitate) [2, 9]: 1 (1/2/3/4/5: new Form 1/2/3/4/5) | pH of supernatant (final pH) [2, 9]: 2.3 | S: solubility [2, 9]: 8.00 mg/mL | FC: form change (XRPD of precipitate) [2, 5]: Low (Low: low crystallinity) | pH of supernatant (final pH) [2, 5]: 3.8 | S: solubility [2, 5]: 2.33 mg/mL | FC: form change (XRPD of precipitate) [2, 6]: 3 (1/2/3/4/5: new Form 1/2/3/4/5) | pH of supernatant (final pH) [2, 6]: 4.4 | S: solubility [2, 6]: 1.66* mg/mL | FC: form change (XRPD of precipitate) [2, 7]: 3 (1/2/3/4/5: new Form 1/2/3/4/5) | pH of supernatant (final pH) [2, 7]: 4.3 | S: solubility [2, 7]: 0.93* mg/mL | FC: form change (XRPD of precipitate) [2, 10]: 2 (1/2/3/4/5: new Form 1/2/3/4/5) | pH of supernatant (final pH) [2, 10]: 5.6 | S: solubility [2, 10]: 0.61* mg/mL | pH of supernatant (final pH) [2, 11]: 6.9 | S: solubility [2, 11]: 0.04* mg/mL | form change after DVS test (XRPD) [3]: Two additional peaks

CC(=O)NCC1CCN(Cc2cc(Oc3ccc(N4CCN(CCC(=O)O)CC4)nc3)nc(-c3cc(Cl)cc(Cl)c3)c2)CC1 [starting material]
solubility [4]: S > 50.5 mg/mL | Moisture Uptake (DVS) ([3]; 25° C., from 10% RH to 80% RH): 0.7% | form change after DVS test (XRPD) [3]: no form change
